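Assay format: 96-well plates, 48-hour exposure. Here, GI50 denotes the concentration required for 50% inhibition of growth. TGI is the concentration that stops growth completely.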
Columns and labels:
Assay in all cases: NCI tumour cell line growth inhibition, 48 h
SNB-19 CNS = system: SNB-19 CNS
HS 578T breast = system: HS 578T breast
SK-MEL-5 melanoma = system: SK-MEL-5 melanoma
T-47D breast = system: T-47D breast
NCI/ADR-RES ovarian = system: NCI/ADR-RES ovarian
BT-549 breast = system: BT-549 breast
UACC-62 melanoma = system: UACC-62 melanoma
K-562 leukemia = system: K-562 leukemia
OVCAR-5 ovarian = system: OVCAR-5 ovarian
HOP-62 NSCLC = system: HOP-62 NSCLC
SK-MEL-28 melanoma = system: SK-MEL-28 melanoma
IGROV1 ovarian = system: IGROV1 ovarian
HCT-15 colon = system: HCT-15 colon
M14 melanoma = system: M14 melanoma
CAKI-1 renal = system: CAKI-1 renal
TK-10 renal = system: TK-10 renal
A549 NSCLC = system: A549 NSCLC
OVCAR-4 ovarian = system: OVCAR-4 ovarian
OVCAR-3 ovarian = system: OVCAR-3 ovarian
HOP-92 NSCLC = system: HOP-92 NSCLC
HCT-116 colon = system: HCT-116 colon
COLO 205 colon = system: COLO 205 colon
HL-60(TB) leukemia = system: HL-60(TB) leukemia
A498 renal = system: A498 renal
SN12C renal = system: SN12C renal
SF-539 CNS = system: SF-539 CNS
HCC-2998 colon = system: HCC-2998 colon
U251 CNS = system: U251 CNS
MDA-MB-435 = system: MDA-MB-435

SMILES: N[C@H]1C[C@@H]1c1ccc(-c2cccc(O)c2)cc1
- GI50 (SNB-19 CNS): 53.8 µM
- TGI (SNB-19 CNS): > 100 µM
- GI50 (HS 578T breast): 22.8 µM
- TGI (HS 578T breast): > 100 µM
- GI50 (SK-MEL-5 melanoma): 15.5 µM
- TGI (SK-MEL-5 melanoma): 30.2 µM
- GI50 (T-47D breast): 23 µM
- TGI (T-47D breast): > 100 µM
- GI50 (NCI/ADR-RES ovarian): 36.8 µM
- TGI (NCI/ADR-RES ovarian): > 100 µM
- GI50 (BT-549 breast): 22.4 µM
- TGI (BT-549 breast): > 100 µM
- GI50 (UACC-62 melanoma): 15.9 µM
- TGI (UACC-62 melanoma): 35 µM
- GI50 (K-562 leukemia): 21 µM
- TGI (K-562 leukemia): 76.1 µM
- GI50 (OVCAR-5 ovarian): 37.5 µM
- TGI (OVCAR-5 ovarian): > 100 µM
- GI50 (HOP-62 NSCLC): 28.3 µM
- TGI (HOP-62 NSCLC): > 100 µM
- GI50 (SK-MEL-28 melanoma): 24.3 µM
- TGI (SK-MEL-28 melanoma): 69.2 µM
- GI50 (IGROV1 ovarian): 30.8 µM
- TGI (IGROV1 ovarian): > 100 µM
- GI50 (HCT-15 colon): 26.7 µM
- TGI (HCT-15 colon): > 100 µM
- GI50 (M14 melanoma): 15.7 µM
- TGI (M14 melanoma): 36.3 µM
- GI50 (CAKI-1 renal): 22.4 µM
- TGI (CAKI-1 renal): 82.9 µM
- GI50 (TK-10 renal): 31.1 µM
- TGI (TK-10 renal): > 100 µM
- GI50 (A549 NSCLC): 50.6 µM
- TGI (A549 NSCLC): > 100 µM
- GI50 (OVCAR-4 ovarian): 28.9 µM
- TGI (OVCAR-4 ovarian): > 100 µM
- GI50 (OVCAR-3 ovarian): 38.9 µM
- TGI (OVCAR-3 ovarian): > 100 µM
- GI50 (HOP-92 NSCLC): 11.9 µM
- TGI (HOP-92 NSCLC): 72 µM
- GI50 (HCT-116 colon): 25 µM
- TGI (HCT-116 colon): > 100 µM
- GI50 (COLO 205 colon): 29.2 µM
- TGI (COLO 205 colon): > 100 µM
- GI50 (HL-60(TB) leukemia): 17.6 µM
- TGI (HL-60(TB) leukemia): 44.9 µM
- GI50 (A498 renal): 14.8 µM
- TGI (A498 renal): 69.6 µM
- GI50 (SN12C renal): 34.5 µM
- TGI (SN12C renal): > 100 µM
- GI50 (SF-539 CNS): 24.2 µM
- TGI (SF-539 CNS): 98.4 µM
- GI50 (HCC-2998 colon): 20 µM
- TGI (HCC-2998 colon): 67.2 µM
- GI50 (U251 CNS): 34.7 µM
- TGI (U251 CNS): > 100 µM
- GI50 (MDA-MB-435): 22.6 µM
- TGI (MDA-MB-435): 61.6 µM

— PubChem BioAssay (NCI)
